Key:
[1] = target: T1, human serum albumin (HSA) (Homo sapiens, UniProt P02768); test: Retention on Chiral-HSA column (HPLC) with different organic modifiers; type: binding; details: 25 °C
T1 construct: purchased Chiral Technologies Inc., a subsidiary of Daicel Chemical Industries Ltd
Protocol: In the next step, different organic modifiers in different percentages were tested. Columns with immobilized proteins, such as Chiral-HSA, are very susceptible to the type and percentage of the organic modifier, which can lead to changes in the tridimensional structure of the protein and can alter the secondary interactions between the analyte and the CSP [30, 31]. According to the instructions of the column manufacturer, the maximum usable organic modifier percentage in the mobile phase was 20% [32]. In our study, the effect of 2-propanol (IPA), 1-propanol (PROP), ethanol (EtOH), methanol (MeOH) and acetonitrile (ACN) on the retention factor (k) and selectivity (α) was investigated. The organic modifiers were used in five different percentages in 10 mM phosphate buffer adjusted to pH 7, using a flow rate of 0.7 mL/min, at 25 °C.
LC–UV analysis was carried out on an Agilent 1100 HPLC system consisting of a quaternary pump, an autosampler, a column compartment, and a DAD detector (Agilent Technologies, Waldbronn, Germany). ChemStation software (ver.: B04 03-SP2) was used for data analysis. UV detection was performed at 230 nm. The APR stock solution was prepared at 1 mg mL^−1 in MeOH, and further dilutions were made with water. An injection volume of 5 μL was used.
The retention factor (k) was calculated using the following equation:(5) k=tr−t0/to where tr is the retention time of the analyte, and t0 is the dead time, determined as the first peak appearance in the chromatogram.
The separation factor (α) was calculated as follows:(6) α=k2/k1 where k1 and k2 are the retention factors of the first- and second-eluting enantiomer, respectively. The k values were used to calculate the albumin-bound percentage (b%) using Equation (7) by zonal elution chromatography:(7) b%=k/1+k·100

[2] = target: T1, human serum albumin (HSA); test: Fluorescence quenching titration of HSA, stability constants; type: binding; details: 10 mM phosphate buffer pH 7, 25 °C, excitation 280 nm
Protocol: The observed fluorescence intensities of HSA and the HSA–APR complexes at increasing APR concentrations were plotted against the total concentration of APR in the solution, and the stability constants were calculated according to Equation (18) by nonlinear parameter fitting.
The fluorescence measurements were carried out on a Jasco J-815 spectropolarimeter with a connected CDF-426L fluorescence detector and a temperature-controlled 10 mm cuvette holder (Jasco, Tokyo, Japan), thermostated to 25 °C with a Lauda water bath circulation thermostat (Lauda Brinkmann, Königshofen, Germany). Spectra Manager software (ver.: 2.08.04) was used for data analysis. The fluorescence analysis was performed with an excitation spectrum of 260–300 nm and detection of the cumulative fluorescence spectrum. […] A volume of 3 mL of the HSA stock solution with an HSA concentration of 0.32 μM was titrated with 2.5–30 μL of S- and, separately, R-APR solutions prepared at 3.75 mg mL^−1 in MeOH, which equals to a range of 6.8–80.6 μM of APR in the measured solution.
The stability constants of both enantiomers were calculated. […] Note that since the fluorescence signal of the ligand (APR) was subtracted for each sample, (IAPR) could be excluded from this equation (8) Iobs.=IHSA·χHSA+IAPR−HSA·χAPR−HSA where ΧHSA is the mole fraction of free HSA, while ΧAPR-HSA is the mole fraction of the APR-HSA complex. […]

[3] = 1-PROP 2% in 10 mM phosphate buffer pH 7, 0.7 mL/min
[4] = 1-PROP 4% in 10 mM phosphate buffer pH 7, 0.7 mL/min
[5] = 1-PROP 6% in 10 mM phosphate buffer pH 7, 0.7 mL/min
[6] = 1-PROP 8% in 10 mM phosphate buffer pH 7, 0.7 mL/min
[7] = 1-PROP 10% in 10 mM phosphate buffer pH 7, 0.7 mL/min
[8] = ACN 2% in 10 mM phosphate buffer pH 7, 0.7 mL/min
[9] = ACN 4% in 10 mM phosphate buffer pH 7, 0.7 mL/min
[10] = ACN 6% in 10 mM phosphate buffer pH 7, 0.7 mL/min
[11] = ACN 8% in 10 mM phosphate buffer pH 7, 0.7 mL/min
[12] = ACN 10% in 10 mM phosphate buffer pH 7, 0.7 mL/min
[13] = EtOH 2% in 10 mM phosphate buffer pH 7, 0.7 mL/min
[14] = EtOH 4% in 10 mM phosphate buffer pH 7, 0.7 mL/min
[15] = EtOH 6% in 10 mM phosphate buffer pH 7, 0.7 mL/min
[16] = EtOH 8% in 10 mM phosphate buffer pH 7, 0.7 mL/min
[17] = EtOH 10% in 10 mM phosphate buffer pH 7, 0.7 mL/min
[18] = IPA 2% in 10 mM phosphate buffer pH 7, 0.7 mL/min
[19] = IPA 4% in 10 mM phosphate buffer pH 7, 0.7 mL/min
[20] = IPA 6% in 10 mM phosphate buffer pH 7, 0.7 mL/min
[21] = IPA 8% in 10 mM phosphate buffer pH 7, 0.7 mL/min
[22] = IPA 10% in 10 mM phosphate buffer pH 7, 0.7 mL/min
[23] = MeOH 2% in 10 mM phosphate buffer pH 7, 0.7 mL/min
[24] = MeOH 4% in 10 mM phosphate buffer pH 7, 0.7 mL/min
[25] = MeOH 6% in 10 mM phosphate buffer pH 7, 0.7 mL/min
[26] = MeOH 8% in 10 mM phosphate buffer pH 7, 0.7 mL/min
[27] = MeOH 10% in 10 mM phosphate buffer pH 7, 0.7 mL/min

T1 sequence (P02768 25-609): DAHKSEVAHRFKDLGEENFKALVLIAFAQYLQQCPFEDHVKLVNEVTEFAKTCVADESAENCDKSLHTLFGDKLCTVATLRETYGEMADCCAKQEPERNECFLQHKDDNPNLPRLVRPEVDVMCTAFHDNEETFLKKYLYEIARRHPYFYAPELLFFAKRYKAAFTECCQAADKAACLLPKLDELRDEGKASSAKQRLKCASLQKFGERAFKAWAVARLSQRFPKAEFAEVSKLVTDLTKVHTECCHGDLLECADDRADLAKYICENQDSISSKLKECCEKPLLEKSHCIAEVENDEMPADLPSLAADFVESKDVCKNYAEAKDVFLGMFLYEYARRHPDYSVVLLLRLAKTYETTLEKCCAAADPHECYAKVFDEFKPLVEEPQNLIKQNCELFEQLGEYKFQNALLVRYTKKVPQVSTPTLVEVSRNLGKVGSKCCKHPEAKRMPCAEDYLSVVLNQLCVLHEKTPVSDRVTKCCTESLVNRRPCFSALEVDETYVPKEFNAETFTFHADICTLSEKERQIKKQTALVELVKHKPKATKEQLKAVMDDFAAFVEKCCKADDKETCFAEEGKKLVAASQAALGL

retention factor k [1, 3] | retention factor k [1, 4] | retention factor k [1, 5] | retention factor k [1, 6] | retention factor k [1, 7] | retention factor k [1, 8] | retention factor k [1, 9] | retention factor k [1, 10] | retention factor k [1, 11] | retention factor k [1, 12] | retention factor k [1, 13] | retention factor k [1, 14] | retention factor k [1, 15] | retention factor k [1, 16] | retention factor k [1, 17] | retention factor k [1, 18] | retention factor k [1, 19] | retention factor k [1, 20] | retention factor k [1, 21] | retention factor k [1, 22] | other results | SMILES
8.99 | 5.96 | 4.19 | 1.99 | 1.32 | 7.56 | 3.98 | 2.80 | 2.03 | 1.42 | 8.72 | 4.93 | 3.33 | 2.83 | 2.66 | 8.04 | 5.00 | 3.01 | 2.26 | 1.45 | retention factor k [1, 23]: 13.05; retention factor k [1, 24]: 9.32; retention factor k [1, 25]: 6.05; retention factor k [1, 26]: 4.48; retention factor k [1, 27]: 3.72; stability constant K of the enantiomer–HSA complex [2]: 6450 M⁻¹ | CCOc1cc([C@H](CS(C)(=O)=O)N2C(=O)c3cccc(NC(C)=O)c3C2=O)ccc1OC [R-APR]
13.98 | 8.04 | 5.20 | 2.25 | 1.32 | 10.05 | 4.90 | 3.09 | 2.03 | 1.42 | 13.84 | 6.52 | 4.12 | 3.20 | 2.94 | 13.48 | 7.62 | 3.76 | 2.56 | 1.45 | retention factor k [1, 23]: 19.00; retention factor k [1, 24]: 15.27; retention factor k [1, 25]: 8.07; retention factor k [1, 26]: 5.32; retention factor k [1, 27]: 3.98; stability constant K of the enantiomer–HSA complex [2]: 10400 M⁻¹ | CCOc1cc([C@@H](CS(C)(=O)=O)N2C(=O)c3cccc(NC(C)=O)c3C2=O)ccc1OC [S-APR, apremilast]

Source: article PMC9916978, “Enantioselective Human Serum Albumin Binding of Apremilast: Liquid Chromatographic, Fluorescence and Molecular Docking Study” (International Journal of Molecular Sciences, 2023)
